Data published in patent US20200368312A1 (priority 2017, published 2020).
In brackets after ≈: the same amount, converted by molar mass. Where two headings read alike, the source gives them in different places.

Experiments:
[1] = system: quality control strain ATCC 29213 (MSSA); assay: MIC, CLSI-guided broth susceptibility testing (Example 10); assay type: cell-based, Staphylococcus aureus
Description: (§1) MIC Testing: Glycopeptide compounds were dissolved in 100% DMSO. In vitro activities were determined using CLSI-guided broth susceptibility testing to measure drug minimum inhibitory concentrations (MICs) of the compounds against the quality control strain ATCC 29213 (MSSA) and the MRSA isolate ATCC BAA-1556. Glycopeptides are defined as compounds of Formula (I), and their respective R^1, R^2, R^3 and R^4 groups. X is —O— for each compound in Table 2.

[2] = system: MRSA isolate ATCC BAA-1556; assay: as above; assay type: cell-based, Staphylococcus aureus
Description: as §1

P. anaerobius = assay: Broth microdilution MIC, P. anaerobius (Table 7); assay type: cell-based; settings: P. anaerobius MMX 1208 ATCC 27337
P. micros = assay: Broth microdilution MIC, P. micros (Table 7); assay type: cell-based; settings: P. micros MMX 3546
S. haemolyticus (CoNS) = assay: Broth microdilution MIC, S. haemolyticus (CoNS) (Table 7); assay type: cell-based; settings: S. haemolyticus (CoNS) MMX 529 ATCC 29970
C. perfringens = assay type: cell-based
Staphylococcus aureus = assay: microbe, parasite or virus in culture; assay type: cell-based; settings: for MIC: Staphylococcus aureus, read-out: MIC
Enterococci = assay type: cell-based
S. hominis (CoNS) = assay: Broth microdilution MIC, S. hominis (CoNS) (Table 7); assay type: cell-based; settings: S. hominis (CoNS) MMX 667 ATCC 27844
Streptococci = assay: Broth microdilution MIC, Streptococci (Example 11, Table 7); assay type: cell-based
P. acnes = assay: Broth microdilution MIC, P. acnes (Table 7); assay type: cell-based
S. lugdenensis (CoNS) = assay: Broth microdilution MIC, S. lugdenensis (CoNS) (Table 7); assay type: cell-based; settings: S. lugdenensis (CoNS) MMX 8724
S. epidermidis (CoNS) = assay: Broth microdilution MIC, S. epidermidis (CoNS) (Table 7); assay type: cell-based

CNC(CC(C)C)C(=O)NC1C(=O)NC(CC(N)=O)C(=O)NC2C(=O)NC3C(=O)NC(C(=O)NC(C(=O)O)c4cc(O)cc(O)c4-c4cc3ccc4O)C(O)c3ccc(c(Cl)c3)Oc3cc2cc(c3OC2OC(CO)C(O)C(O)C2OC2CC(C)(NCc3ccc(-c4ccc(Cl)cc4)cc3)C(O)C(C)O2)Oc2ccc(cc2Cl)C1O (centres unmarked) [RV79] was tested. Which “MIC Values MSSA 29213” value [1] did it give?
The value was 0.016 µg/mL (≈ 0.0097 µM).

What about the “MIC Values MRSA 1556” value [2] of the same compound?
The value was 0.016 µg/mL (≈ 0.0097 µM).

Which results are given for CN[C@H](CC(C)C)C(=O)N[C@H]1C(=O)N[C@@H](CC(N)=O)C(=O)N[C@H]2C(=O)N[C@H]3C(=O)N[C@H](C(=O)N[C@H](C(=O)O)c4cc(O)cc(O)c4-c4cc3ccc4O)[C@H](O)c3ccc(c(Cl)c3)Oc3cc2cc(c3O[C@@H]2O[C@H](CO)[C@@H](O)[C@H](O)[C@H]2O[C@H]2C[C@](C)(N)[C@H](O)[C@H](C)O2)Oc2ccc(cc2Cl)[C@H]1O [Vancomycin]?
MIC (P. anaerobius): 0.25 µg/mL (≈ 0.173 µM); MIC (P. micros): 0.5 µg/mL (≈ 0.345 µM); MIC (S. haemolyticus (CoNS)): 1 µg/mL (≈ 0.69 µM); MIC (C. perfringens): 0.5 µg/mL (≈ 0.345 µM); RV40 activity as compared to Comparator (Staphylococcus aureus): 86 ×; MIC (Staphylococcus aureus; ATCC 33591 / MRSA, S. aureus MMX 5717 ATCC 33591, MRSA): 1 µg/mL (≈ 0.69 µM); MIC (Staphylococcus aureus; ATCC BAA-1756 / MRSA, S. aureus MMX 2011 ATCC BAA-1756, MRSA): 1 µg/mL (≈ 0.69 µM); MIC (Staphylococcus aureus; MRSA, S. aureus MMX 2010, MRSA): 1 µg/mL (≈ 0.69 µM); MIC (Staphylococcus aureus; MRSA, S. aureus MMX 3982, MRSA): 0.5 µg/mL (≈ 0.345 µM); MIC (Staphylococcus aureus; MRSA, S. aureus MMX 5985, MRSA): 0.5 µg/mL (≈ 0.345 µM); MIC (Staphylococcus aureus; MRSA, S. aureus MMX 5999, MRSA): 0.5 µg/mL (≈ 0.345 µM); MIC (Staphylococcus aureus; MRSA, S. aureus MMX 7899, MRSA): 0.5 µg/mL (≈ 0.345 µM); MIC (Staphylococcus aureus; MRSA, S. aureus MMX 7900, MRSA): 0.5 µg/mL (≈ 0.345 µM); MIC (Staphylococcus aureus; MRSA, S. aureus MMX 7901, MRSA): 0.5 µg/mL (≈ 0.345 µM); MIC (Staphylococcus aureus; MRSA, S. aureus MMX 7902, MRSA): 1 µg/mL (≈ 0.69 µM); MIC (Staphylococcus aureus; MRSA, S. aureus MMX 7903, MRSA): 1 µg/mL (≈ 0.69 µM); MIC (Staphylococcus aureus; MSSA, S. aureus MMX 2490, MSSA): 1 µg/mL (≈ 0.69 µM); MIC (Staphylococcus aureus; MSSA, S. aureus MMX 7907, MSSA): 0.5 µg/mL (≈ 0.345 µM); MIC (Staphylococcus aureus; MSSA, S. aureus MMX 7908, MSSA): 1 µg/mL (≈ 0.69 µM); MIC (Staphylococcus aureus; S. aureus MMX 4665, hVISA): 4 µg/mL (≈ 2.76 µM); MIC (Staphylococcus aureus; S. aureus MMX 5989, Mu3, hVISA): 1 µg/mL (≈ 0.69 µM); MIC (Staphylococcus aureus; VISA, S. aureus MMX 1723, Mu50, VISA): 8 µg/mL (≈ 5.52 µM); MIC (Staphylococcus aureus; VISA, S. aureus MMX 2124, VISA, DaptoNS): 4 µg/mL (≈ 2.76 µM); MIC (Staphylococcus aureus; VISA, S. aureus MMX 4658, VISA): 4 µg/mL (≈ 2.76 µM); MIC (Staphylococcus aureus; VISA, S. aureus MMX 4660, VISA): 4 µg/mL (≈ 2.76 µM); MIC (Enterococci; E. faecalis MMX 101 ATCC 29212, VSE): 2 µg/mL (≈ 1.38 µM); MIC (Enterococci; E. faecalis MMX 1086, VanA VRE): > 64 µg/mL; MIC (Enterococci; E. faecalis MMX 4176): 1 µg/mL (≈ 0.69 µM); MIC (Enterococci; E. faecium MMX 173, VanB VRE): > 64 µg/mL; MIC (Enterococci; E. faecium MMX 851, VanA VRE): > 64 µg/mL; MIC (Enterococci; E. faecium MMX 4204): 0.5 µg/mL (≈ 0.345 µM); MIC (S. hominis (CoNS)): 0.5 µg/mL (≈ 0.345 µM); MIC (Streptococci; S. agalactiae MMX 427 ATCC 13813): 0.25 µg/mL (≈ 0.173 µM); MIC (Streptococci; S. agalactiae MMX 4088): 0.25 µg/mL (≈ 0.173 µM); MIC (Streptococci; S. agalactiae MMX 4115, erm^R): 0.25 µg/mL (≈ 0.173 µM); MIC (Streptococci; S. anginosus (AGS) MMX 1201 ATCC 33397): 0.5 µg/mL (≈ 0.345 µM); MIC (Streptococci; S. constellatus (AGS) MMX 5677): 0.25 µg/mL (≈ 0.173 µM); MIC (Streptococci; S. dysgalactiae MMX 5121): 0.25 µg/mL (≈ 0.173 µM); MIC (Streptococci; S. dysgalactiae MMX 5123): 0.5 µg/mL (≈ 0.345 µM); MIC (Streptococci; S. dysgalactiae MMX 5124): 0.25 µg/mL (≈ 0.173 µM); MIC (Streptococci; S. mitis (MGS) MMX 1205 ATCC 49456): 0.5 µg/mL (≈ 0.345 µM); MIC (Streptococci; S. mitis (MGS) MMX 5798): 0.25 µg/mL (≈ 0.173 µM); MIC (Streptococci; S. oralis (MGS) MMX 5821): 0.25 µg/mL (≈ 0.173 µM); MIC (Streptococci; S. pneumoniae MMX 432, PRSP): 0.25 µg/mL (≈ 0.173 µM); MIC (Streptococci; S. pneumoniae MMX 747): 0.12 µg/mL (≈ 0.0828 µM); MIC (Streptococci; S. pneumoniae MMX 1195 ATCC 49619, PISP): 0.25 µg/mL (≈ 0.173 µM); MIC (Streptococci; S. pyogenes MMX 404 ATCC 19615): 0.25 µg/mL (≈ 0.173 µM); MIC (Streptococci; S. pyogenes MMX 946, ermR): 0.25 µg/mL (≈ 0.173 µM); MIC (Streptococci; S. pyogenes MMX 8778): 0.25 µg/mL (≈ 0.173 µM); MIC (P. acnes; P. acnes MMX 7942 ATCC 6919): 0.25 µg/mL (≈ 0.173 µM); MIC (P. acnes; P. acnes MMX 7946 ATCC 11827): 0.25 µg/mL (≈ 0.173 µM); MIC (S. lugdenensis (CoNS)): 0.5 µg/mL (≈ 0.345 µM); MIC (S. epidermidis (CoNS); S. epidermidis (CoNS) MMX 762, MRSE): 2 µg/mL (≈ 1.38 µM); MIC (S. epidermidis (CoNS); S. epidermidis (CoNS) MMX 5145, MRSE): 1 µg/mL (≈ 0.69 µM)
